Reference: US8735406B2, “8-oxodihydropurine derivative” (Dainippon Sumitomo Pharma Co., Ltd., priority 2009, dated 2014)
Where two headings read alike, the source gives them in different places.

Biological target: T1, FAAH (Rattus norvegicus, UniProt P97612)
T1 construct: Preparation of Rat Brain Membranes Preparations (FAAH Enzyme Solution); from tissue; host or cells: rat cerebrum (brain membrane preparation)
T1 sequence (P97612 1-579): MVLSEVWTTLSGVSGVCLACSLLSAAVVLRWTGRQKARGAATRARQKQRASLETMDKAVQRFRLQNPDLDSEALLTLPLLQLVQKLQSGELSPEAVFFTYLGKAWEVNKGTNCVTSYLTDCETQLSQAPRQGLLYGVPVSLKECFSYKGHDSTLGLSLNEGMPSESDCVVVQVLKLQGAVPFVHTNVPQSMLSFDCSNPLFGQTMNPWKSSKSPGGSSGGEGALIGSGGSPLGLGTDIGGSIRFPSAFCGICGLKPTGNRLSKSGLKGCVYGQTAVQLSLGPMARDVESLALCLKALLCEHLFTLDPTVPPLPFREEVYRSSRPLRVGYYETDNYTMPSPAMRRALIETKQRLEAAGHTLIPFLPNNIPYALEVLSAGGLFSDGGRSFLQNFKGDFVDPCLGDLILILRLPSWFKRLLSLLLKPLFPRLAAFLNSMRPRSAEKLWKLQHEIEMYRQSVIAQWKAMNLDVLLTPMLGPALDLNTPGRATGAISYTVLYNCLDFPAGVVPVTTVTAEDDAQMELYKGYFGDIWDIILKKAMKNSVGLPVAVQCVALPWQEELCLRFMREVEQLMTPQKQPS
Experiment: Determination of FAAH inhibitory activity in rat (rat brain membrane preparations, [3H]-anandamide hydrolysis)
Assay type: biochemical
How it was run: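 Compounds tested from 0.1 nM to 1 μM to derive IC50 against FAAH hydrolysis in rat brain membrane preparations (100 μg/mL). A 10-min 37 °C preincubation was followed by 10 min with [3H]-anandamide (2 nM) mixed with 2 μM unlabelled anandamide. Radioactive ethanolamine was extracted into the water/methanol layer and counted.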

[1] = rat brain membrane preparations, 100 nM test substance, read-out: FAAH Inhibition, Inhibition Rate at 100 nM
[2] = rat brain membrane preparations, test substance 0.1 nM to 1 μM, read-out: FAAH Inhibition IC50
[3] = at 100 nM, rat brain membrane preparations, read-out: FAAH Inhibition Inhibition Rate at 100 nM
[4] = rat brain membrane preparations, read-out: FAAH Inhibition IC50

Compound	inhibition at 0.1 µM [1] [%]	IC50 [2] [µM]	further results
COc1cccc(-c2ncc3c(n2)n(C)c(=O)n3C(=O)N(C)CCC2=CCCCC2)c1 [Example 106, N-[2-(Cyclohex-1-en-1-yl)ethyl]-2-(3-methoxyphenyl)-N,9-dimethyl-8-oxo-8,9-dihydro-7H-purine-7-carboxamide]	110	0.001	
CCc1ncc2c(n1)n(C(=O)N1CC(c3ccccc3)C1)c(=O)n2C [Example 634]			inhibition at 0.1 µM [3]: 95%; IC50 [4]: 0.098 µM
Cn1c(=O)n(C(=O)N2CCC2)c2cnc(COc3cccc(F)c3)nc21 [compound 405]			IC50 (FAAH Inhibition IC50, rat brain membrane preparations, test substance 0.1 nM to 1 μM): 0.098 µM; inhibition at 0.1 µM (read-out: FAAH Inhibition, Inhibition Rate at 100 nM): 97%
CN(C)C(=O)n1c(=O)n(C)c2cnc(COc3ccccc3Cl)nc21 [Example 421]	85	0.095	
COCCCc1ncc2c(n1)n(C)c(=O)n2C(=O)N1CC(Oc2ccccc2)C1 [Example 384]	8	> 0.1	
CCCc1ncc2c(n1)n(C(=O)N1CC(c3cccc(F)c3)C1)c(=O)n2C [Example 633]			inhibition at 0.1 µM [3]: 82%; IC50 [4]: 0.019 µM
CCN(CC)C(=O)n1c(=O)n(C)c2nc(-c3ccccc3)ncc21 [Example 40]	20	> 0.1	
CC(c1ccccc1)c1ncc2c(n1)n(C)c(=O)n2C(=O)N1CCCC1 (centres unmarked) [Example 273]	89	0.047	
CCCOCc1ncc2c(n1)n(C)c(=O)n2C(=O)N1CC(c2ccc(F)cc2)C1 [compound 470]	103	0.002	
COCc1ncc2c(n1)n(C)c(=O)n2C(=O)N1CC(c2ccc(F)cc2F)C1 [Example 454, 7-{[3-(2,4-Difluorophenyl)azetidin-1-yl]carbonyl}-2-(methoxymethyl)-9-methyl-7,9-dihydro-8H-purine-8-one]	89	0.006	
Cn1c(=O)n(C(=O)N2CCCC2)c2nc(CCc3ccccc3)ncc21 [Example 290, 7-Methyl-2-(2-phenylethyl)-9-(pyrrolidin-1-ylcarbonyl)-7,9-dihydro-8H-purine-8-one]	93	0.047	
Cn1c(=O)n(C(=O)N2CCC2)c2nc(CCc3cccc(C4CC4)c3)ncc21 [compound 572]	83	0.099	
CCN(C)C(=O)n1c(=O)n(C)c2nc(-c3ccncc3)ncc21 [Example 220, N-Ethyl-N,9-dimethyl-8-oxo-2-(pyridin-4-yl)-8,9-dihydro-7H-purine-7-carboxamide]	105	0.007	

More lines, main results first:

inhibition at 0.1 µM [1] [%]	IC50 [2] [µM]	Compound	further results
95	0.024	Cc1ccc(C)c(CCc2ncc3c(n2)n(C(=O)N(C)C)c(=O)n3C)c1 [compound 507]	
98	0.009	Cn1c(=O)n(C(=O)N2CCN(c3ccc(C(F)(F)F)cn3)CC2)c2cnc(-c3ccccc3)nc21 [Example 50, 9-Methyl-2-phenyl-7-({4-[5-(trifluoromethyl)-pyridin-2-yl]piperazin-1-yl}carbonyl)-7,9-dihydro-8H-purine-8-one]	
95	0.012	CN(C)C(=O)n1c(=O)n(C)c2cnc(-c3ccc(Cl)cc3)nc21 [compound 329]	
77	0.022	CN(C)C(=O)n1c(=O)n(C)c2cnc(CCc3ccccc3OC(F)(F)F)nc21 [compound 549]	
93	0.04	COc1cccc(-c2ncc3c(n2)n(C)c(=O)n3C(=O)N2CCN(C3CCCC3)CC2)c1 [Example 98, 7-[(4-Cyclopentylpiperazin-1-yl)carbonyl]-2-(3-methoxyphenyl)-9-methyl-7,9-dihydro-8H-purine-8-one]	
104	0.001	COCc1ncc2c(n1)n(C)c(=O)n2C(=O)N1CC(c2ccc(F)c(C)c2)C1 [Example 455, 7-{[3-(4-Fluoro-3-methylphenyl)azetidin-1-yl]carbonyl}-2-(methoxymethyl)-9-methyl-7,9-dihydro-8H-purine-8-one]	
48	0.106	CCN(C)C(=O)n1c(=O)n(C)c2cnc(CCc3ccc(F)cc3)nc21 [compound 555]	
91	0.047	Cn1c(=O)n(C(=O)N2CCC(c3ccccc3)CC2)c2cnc(-c3ccccc3)nc21 [Example 33, 9-Methyl-2-phenyl-7-[(4-phenylpiperidin-1-yl)carbonyl]-7,9-dihydro-8H-purine-8-one]	
98	0.007	COCc1ncc2c(n1)n(C)c(=O)n2C(=O)N1CC(c2cccc(C(F)(F)F)c2)C1 [Example 443, 2-(Methoxymethyl)-9-methyl-7-({[3-(3-trifluoromethyl)phenyl]azetidin-1-yl}carbonyl)-7,9-dihydro-8H-purine-8-one]	
97	0.03	COc1ccc(F)c(-c2ncc3c(n2)n(C)c(=O)n3C(=O)N2CCCC2)c1 [Example 200, 2-(2-Fluoro-5-methoxyphenyl)-9-methyl-7-(pyrrolidin-1-ylcarbonyl)-7,9-dihydro-8H-purine-8-one]	
98	0.014	CCN(C)C(=O)n1c(=O)n(C)c2nc(CC(C)(C)C)ncc21 [Example 160, 2-(2,2-Dimethylpropyl)-N-ethyl-N,9-dimethyl-8-oxo-8,9-dihydro-7H-purine-7-carboxamide]	
103	0.009	COc1cccc(-c2ncc3c(n2)n(C)c(=O)n3C(=O)N(C)Cc2ccc(F)cc2)c1 [Example 71, N-(4-Fluorobenzyl)-2-(3-methoxyphenyl)-N,9-dimethyl-8-oxo-8,9-dihydro-7H-purine-7-carboxamide]	
88	0.051	Cc1ccccc1Cc1ncc2c(n1)n(C)c(=O)n2C(=O)N1CCCC1 [Example 257, 9-Methyl-2-(2-methylbenzyl)-7-(pyrrolidin-1-ylcarbonyl)-7,9-dihydro-8H-purine-8-one]	
108	0.011	CCOCc1ncc2c(n1)n(C)c(=O)n2C(=O)N1CC(c2ccccc2)C1 [Example 460, 2-(Ethoxymethyl)-9-methyl-7-[(3-phenylazetidin-1-yl)carbonyl]-7,9-dihydro-8H-purine-8-one]	
91	0.053	Cn1c(=O)n(C(=O)N2CCCC2)c2nc(-c3ccccc3)ncc21 [Example 224, 7-Methyl-2-phenyl-9-(pyrrolidin-1-ylcarbonyl)-7,9-dihydro-8H-purine-8-one]	
98	0.005	Cn1c(=O)n(C(=O)N2CCCC2)c2cnc(-c3cccnc3)nc21 [Example 205, 9-Methyl-2-(pyridin-3-yl)-7-(pyrrolidin-1-ylcarbonyl)-7,9-dihydro-8H-purine-8-one]	
103	0.004	COc1cccc(-c2ncc3c(n2)n(C)c(=O)n3C(=O)N2CCC(/C=C/c3ccc(Cl)cc3)CC2)c1 [Example 112, 7-({4-[(E)-2-(4-Chlorophenyl)ethenyl]piperidin-1-yl}carbonyl)-2-(3-methoxyphenyl)-9-methyl-7,9-dihydro-8H-purine-8-one]	
100	< 0.001	CCOc1ccc(N2CCN(C(=O)n3c(=O)n(C)c4nc(-c5cccnc5)ncc43)CC2)cc1 [Example 144, 7-{[4-(4-Ethoxyphenyl)piperazin-1-yl]carbonyl}-9-methyl-2-(pyridin-3-yl)-7,9-dihydro-8H-purine-8-one]	
